For assay [1], the system named is Stat3. The experiment in a line: IL-6 mediated Stat3 activation (p-Stat3 immunoblot) in MM cells. It is filed as cell-based. Details: key to P-Stat 3: (inhibition = ↓); (no effect) = —. On the procedure:
To examine the effect of newly synthesized AG and WP compounds on cytokine-mediated Stat activation, multiple myeloma (MM-1) cells were pretreated with AG490 or AG1801 at 2.5, 12, and 25 μM concentrations (for 2 hr) before stimulating cells with IL-6 or IFN-α for 10 min. Stat3 and Stat1 expression and activation were examined by immunoblotting.
To determine the effect of compounds on both Stat3 activation and c-myc protein expression MM-1, OCI-My5 and U266 cells were incubated with 25 μM of AG1801, AG490, WP1038, WP1039, WP1051, or WP1052 for 2 hours before cells were stimulated with 2 ng/ml IL-6 for 10 min. Cell lysates were prepared and immunoblotted for p-Stat3, Stat3, c-myc and actin (as a control). Both Stat3 activation and c-myc expression were effected by WP and AG compounds.

The subject of assay [2] is U266 MM cells. The experiment in a line: MTT cell growth and survival assay, U266 MM cells. It is filed as cell-based. Conditions: 72 hours. How it is done: (§1) To determine the effect of AG and WP compounds on MM cell growth/survival, MM cells were incubated with the indicated concentration of AG or WP for 72 hours before cell growth and survival were estimated by MTT assay.
(§2) To determine the effect of AG and WP compounds on MM cell growth/survival MM cells were incubated with the indicated concentration of AG or WP for 72 hours before cell growth and survival were estimated by MTT assay.

Assay [3] concerns OCI MM cells. The experiment in a line: MTT cell growth and survival assay, OCI MM cells. Conditions: 72 hours. The assay is classed as cell-based. How it is done:
as §1, §2

The test system of assay [4] is MM-1 MM cells. The assay is described as follows: MTT cell growth and survival assay, MM-1 MM cells. It is filed as cell-based. As to conditions: 72 hours; for IC50: MTT assay, read-out: IC50 (μM) MM1. How it is done:
as §1, §2

The subject of assay [5] is Jak2/Stat3 signaling. As to conditions: literature; cited from earlier work.
Assay [6] concerns c-myc. The assay is described as follows: c-myc protein expression by immunoblot in MM cells. Details: key to C-Myc: (inhibition = ↓); (no effect) = —. It is filed as cell-based. Conditions: for C-Myc: c-myc downregulation, immunoblot. On the procedure:
To determine the effect of compounds on both Stat3 activation and c-myc protein expression MM-1, OCI-My5 and U266 cells were incubated with 25 μM of AG1801, AG490, WP1038, WP1039, WP1051, or WP1052 for 2 hours before cells were stimulated with 2 ng/ml IL-6 for 10 min. Cell lysates were prepared and immunoblotted for p-Stat3, Stat3, c-myc and actin (as a control).
To determine the temporal effects and mechanism of action of AG490 and AG1801 action on c-myc expression in MM cells, MM-1 cells were incubated with 0, 25, or 50 μM of AG490 or AG1801 and harvested at 30, 60, or 120 min. Lysates were immunoblotted for c-myc or actin as a protein loading control. […] Semi-quantitative PCR was used to measure changes in c-myc mRNA extracted from cells treated for 30 min with AG1801 at 25 μM. GAPDH PCR was used as a control.
These compounds were evaluated for their signal inhibitory and anti-proliferative/apoptotic properties on multiple myeloma, lymphoma and chronic myelogenous leukemia cell lines. WP1015, WP1034, AG1801, and AG490 were tested across a range of concentrations (6,12, and 25 μM) for their ability to inhibit c-myc expression using immunoblots.
These immunoblots tested a range of concentrations (1.56-25 μM for WP compounds) and used β-actin as a control.

Assay [7] relates to OCI-My5 cells. The experiment in a line: Caspase activation and PARP cleavage in OCI-My5 cells. The assay is classed as cell-based. Conditions: 12.5 and 25 μM. On the procedure: To determine whether AG1801 effects caspase activation in MM cells, OCI-My5 cells were treated as described above before cell lysates were examined for casapase activation and PARP cleavage. […] At 12.5 and 25 μM, AG490 was ineffective in caspase activation and PARP clevage in these cells.

The conditions of assay [8]: literature; cited from earlier work.
Assay [9] relates to MM colonies from bone marrow aspirates of MM patients. The assay is described as follows: Primary MM colony formation in methyl-cellulose. The assay is classed as cell-based, human. Conditions: 25 μM, 7 to 10 days. How it is done: To determine whether these compounds effect primary MM colony growth bone marrow aspirates from MM patients were partially-purified by magnetic bead separation and analyzed for immunoglobulin heavy-chain gene rearrangement by PCR. Cells were grown as colonies in methyl-cellulose in the presence or absence of AG compound as noted for 7 to 10 days. Control colonies were examined for Ig heavy chain gene rearrangement to confirm the clonal nature of the population.

Assay [10] has as its system MM-1, Mino, WDT-2, WDT-3, K562, K562-R cell lines. The experiment in a line: Anti-proliferative/apoptotic action on c-myc overexpressing cell lines (FIG. 5). It is filed as cell-based. As to conditions: FIG. 5, incl. Imatinib-resistant K562-R. The source says: The anti-proliferative/apoptotic actions of WP1066 were also examined on cell lines known to overexpress c-myc. […] Thus WP1066 clearly exerts a potent inhibition of cell proliferation and/or survival in multiple cancer cell lines, and WP1066 will be used as a therapeutic.

Assay [11] relates to c-myc. The assay is described as follows: c-myc protein immunoblot in LP non-Hodgkin lymphoma cells. It is filed as cell-based. On the procedure: Additional cell types were examined for response to treatment with WP1066.
(§3) Further studies were conducted to determine the dose and time dependent effects of these new compounds on IL-6 mediated Stat3 activation, c-myc protein expression and anti-proliferative of LP and other cell types.

Assay [12] deals with Stat3. The assay is described as follows: IL-6 mediated Stat3 activation immunoblot in LP cells. It is filed as cell-based. As to conditions: 3-25 μM. How it is done: as §3
Assay [13] relates to c-myc/Stat3. The experiment in a line: Stat3/c-myc inhibitory activity in MM-1 cells (FIG. 7). The assay is classed as cell-based. The source says: An improved inhibition of c-myc/Stat3 by WP1066, WP1130, and WP1129 was observed (FIG. 7). The compounds were compared with regard to their Stat3/c-myc inhibitory activity in MM-1 cells.
The test system of assay [14] is human A375 melanoma tumors. The assay is described as follows: A375 melanoma tumors in nude mice. It is filed as in vivo, Swiss nude mice. As to conditions: 40 mg/kg i.p. every other day, 8 injections from day 7, to day 21. How it is done: The results of animal studies of human A375 melanoma tumors growing in nude mice, treated with WP1066 after tumors reached a palpable size, are shown in FIG. 8. The following animal model was used to evaluate the anti-tumor and anti-cancer effects of the compounds: on Day 0, A375 cells were suspended to 20×10^6 cells/ml in RPMI 1640 medium. On day 0, 0.2 ml of this suspension containing A375 cells was injected (s.c.) into female Swiss nude mice 6-7 weeks of age. On Day 7, 40 mg/kg of WP1066 was injected (i.p.) into the above mice in a 0.1 ml suspension of DMSO/PEG300 (50/50) on a qd, every other day schedule for 8 injections. Five mice per experimental group were used, including a vehicle (DMSO/PEG300) control group. Animals received 40 mg/kg WP1066 every other day […] for a total of 8 injections. The control group reached maximum tumor burden at day 21, and for this reason the experiment was stopped.

Entries after “also recorded” stand apart in the source; their conditions may differ.

As to `N#C/C(=C\c1ccc(O)c(O)c1)C(=O)NCc1ccccc1` [AG 490, reference compound], the “Suppression of IL-6 signaling (Stat3 activation)” value in assay [1] (MM-1 cells, 2 hr pretreatment, 12 and 25 μM, IL-6 10 min) is “inactive”. For the same compound, the “P-Stat 3” value in assay [1] (Stat3 inhibition, immunoblot) is recorded as “↓”. In assay [1] (immunoblot), the “P-Stat 3: concentration at which inhibition is seen” value is more than 25 µM. The “Growth and survival of U266 cells (in words)” value in assay [2] (MTT, FIG. 2C/3C) was “effective in reducing the growth and survival”. The IC50 in [2] (Homo sapiens, U-266, MTT assay) is more than 12.5 µM; in assay [3] (MTT assay) it was more than 12.5 µM; in assay [4] it was more than 12.5 µM. The “Growth and survival of OCI cells (in words)” value in [3] (MTT, FIG. 2B/3B) was “effective in reducing the growth and survival”. The “Growth and survival of MM1 cells (in words)” value in [4] (MTT, FIG. 2A/3A) is “effective in reducing the growth and survival”. In assay [5], the “Concentration needed to achieve inhibition of Jak2/Stat3 signaling and anti-tumor effects” value is 50 to 100 µM. In addition, in [6] (6, 12, 25 μM, AG490 up to 50 μM), the “Inhibition of c-myc protein expression” value is reported as “little or no effect”. In assay [6] (MM-1 cells, 25 and 50 μM, 30, 60, 120 min), the “c-myc expression, temporal effects” value is on record as “completely unable to affect c-myc expression”. For the same compound, the C-Myc result in assay [6] is “↓”. Further, the “Caspase activation (caspase 3 and caspase 8)” value in [7] is “ineffective”. For the same compound, the PARP cleavage entry in assay [7] is “ineffective”. Further, the “Activity in animal studies” value in assay [8] is recorded as “limited activity”. Also, in assay [9], the “Inhibition of MM colony formation” value is “less effective”.
Consider `C[C@H](NC(=O)/C(C#N)=C/c1cccc(Br)n1)c1ccccc1` [WP 1066], for which, in assay [10], the “Cell proliferation and/or survival in multiple cancer cell lines” value is “dose-dependent anti-tumor effects; also recorded: effective in reducing cell proliferation”. Further, the c-myc expression entry in [11] (LP cells, 3-25 μM) is on record as “reduced c-myc expression”. Further, in [11] (LP cells, 5, 15, 30, 60 min), the “Downregulation of c-myc protein” value was “rapid downregulation of c-myc protein”. The “Reduction in c-myc at shortest incubation” value in assay [11] (LP cells, 5 min) is recorded as “strong reduction”. Further, the IC50 in assay [4] was determined as 1.3 µM. For the same compound, in [12], the “IL-6 mediated Stat3 activation” value was “blocked IL-6 mediated Stat3 activation; also recorded: slightly better activity than WP1015”. The “Inhibition of c-myc/Stat3” value in assay [13] is recorded as “Strong inhibition”. Moreover, the “Suppression of c-myc protein expression” value in [6] (1.56-25 μM WP compounds, CHX 0-30 min at much higher concentrations) is “more active in suppressing c-myc protein expression than WP1015”. In addition, the C-Myc result in [6] is recorded as “↓”. The “Tumor size / tumor volume in vivo” value in assay [14] was “decrease tumor size; also recorded: reduces tumor volume”.

The values are drawn from patent US9096499B2, “Compounds for treatment of cell proliferative diseases” (Board of Regents, The University of Texas System, priority 2003, dated 2015).
